Laboratory results: the NIST ThermoML archive (doi:10.1016/j.tca.2011.12.010)
± gives the expanded uncertainty stated by the source.

Details: DTA

O=[N+]([O-])[O-].O=[N+]([O-])[O-].O=[N+]([O-])[O-].O=[N+]([O-])[O-].[K+].[K+].[Mg+2] [bis-potassium magnesium nitrate]
Triple point temperature (Crystal 1): 468.85 ± 0.5 K
Triple point temperature (Crystal 2): 404.8 ± 0.5 K
